In patent US8012950B2, “Method to diagnose and treat degenerative joint disease” (Wisconsin Alumni Research Foundation, priority 2003, dated 2011):

Experiments:
[1] = target: T1, recombinant human MMP-13 (collagenase 3) (Homo sapiens, UniProt P45452); experiment: Matrix metalloproteinase-13 inhibition assay; assay type: biochemical; conditions: at 1 mM concentrations
T1 construct: purchased Chondrex, Inc., Redmond, Wash; Cat. No. 3003
Description: Matrix Metalloproteinase-13 Inhibition Assay: The MMP-13 (collagenase 3) inhibition assay used a commercially available kit (Chondrex, Inc., Redmond, Wash., Cat. No. 3003) The recombinant human MMP-13 (collagenase 3) was activated by adding 5 μl of a 10 μg/ml solution of recombinant human MMP-13, 90 μl of sample dilution and reaction buffer (Solution B), and 5 μl of p-aminophenylmercuric acetate to each well of a microplate. The microplate was then incubated for 60 minutes at 35° C. Ten microliters of proteinase inhibitor was then added to each well to neutralize non-collagenolytic proteases in the sample solutions. Twenty five microliters of doxycycline, tetracycline, minocycline, COL-3, NPI-3469 (dissolved in buffer as previously described) and 25 μl of solution B were added to each well. Concentrations of the candidate inhibiting compounds in the initial mixture were prepared at 10^−7 to 10^−3 M using solution B. After the microplate was incubated at approximately 25° C. for 30 minutes, 10 μl of stop solution was added to each well and the fluorescence of each well was then determined using a fluorescent microplate reader set at 360 nm excitation/460nm emission. Data Analysis: The residual collagenolytic enzyme activity as a percentage of the control was calculated for each concentration of each inhibiting compound. All dilutions of each inhibiting compound were assayed in duplicate and a mean value was calculated for each well.

[2] = target: T2, recombinant human cathepsin K (Homo sapiens, UniProt P43235); experiment: Cathepsin K inhibition assay; assay type: biochemical
T2 sequence (P43235 115-329): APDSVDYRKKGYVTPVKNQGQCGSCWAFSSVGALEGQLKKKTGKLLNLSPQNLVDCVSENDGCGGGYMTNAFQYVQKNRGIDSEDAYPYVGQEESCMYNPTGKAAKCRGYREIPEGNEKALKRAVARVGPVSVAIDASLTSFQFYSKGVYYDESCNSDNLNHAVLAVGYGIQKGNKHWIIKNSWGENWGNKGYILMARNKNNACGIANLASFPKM
Description: Cathepsin K Inhibition Assay: The cathepsin K inhibition assay was modified from a previously described protocol (Votta et al., 1997). Doxycycline, tetracycline and minocycline were dissolved in 0.1 M Tris/0.15M NaCl buffer, pH 7.4. COL-3 was dissolved in 100% ethanol. NPI-3469 was dissolved in dimethylsulphoxide. Ten microliters of doxycycline, tetracycline, minocycline, COL-3, and NPI-3469 were dissolved in buffer and an equal volume of 0.125 μM rh-human cathepsin K standard dissolved in 100 mM sodium acetate buffer, pH 5.5 were mixed in a 96-well microplate and incubated at approximately 25° C. (room temperature) for 15 minutes. Concentrations of the candidate inhibiting compound in the initial mixture were prepared at 10^-7 to 10^-3M. Then 180 μl of an MCA substrate buffer containing 100 mM sodium acetate buffer pH 5.5, 2.5 mM dithiothreitol, 2.5 mM EDTA, and 5 μ[…] substrate (Peptides International, Louisville, KY) was added to the mixture. The microplate was incubated for 60 minutes at approximately 25° C. The fluorescence of each well was then determined using a fluorescent microplate reader set at 360 nm excitation/460 nm emission. Data Analysis: The residual collagenolytic enzyme activity as a percentage of the control was calculated for each concentration of each inhibiting compound. All dilutions of each inhibiting compound were assayed in duplicate and a mean value was calculated for each well.

[3] = Pharmacokinetic study of oral NPI 3469 in the dog; assay type: in vivo; conditions: 4 beagles, single oral dose 1 mg/kg
Description: Pharmacokinetics of oral NPI 3469 (NAEJA Pharmaceuticals, Edmonton, Alberta, Canada) in the dog. We have conducted a pharmokinetic study in 4 beagles using a single oral dose of NPI 3469 given at 1 mg/kg and pharmacokinetic parameters have been determined.

inhibition of matrix metalloproteinase-13 [1] [%] | inhibition of cathepsin K ([2]; at 1 μm) [%] | inhibition of cathepsin K ([2]; at 10 μm) [%] | inhibition of matrix metalloproteinase-13 (in words) [1] | SMILES | adverse effects during the treatment period [3]
– | – | – | did not inhibit | C[C@H]1c2cccc(O)c2C(=O)C2=C(O)[C@]3(O)C(=O)C(C(N)=O)=C(O)[C@@H](N(C)C)[C@@H]3[C@@H](O)[C@@H]21 [doxycycline] | –
85 | – | – | – | CN(C)c1ccc(O)c2c1C[C@H]1C[C@H]3[C@H](N(C)C)C(O)=C(C(N)=O)C(=O)[C@@]3(O)C(O)=C1C2=O [minocycline] | –

Continued, compound first:

SMILES | inhibition of matrix metalloproteinase-13 [1] [%] | inhibition of cathepsin K ([2]; at 1 μm) [%] | inhibition of cathepsin K ([2]; at 10 μm) [%] | inhibition of matrix metalloproteinase-13 (in words) [1] | adverse effects during the treatment period [3]
NC(=O)C1=C(O)CC2CC3Cc4cccc(O)c4C(=O)C3=C(O)C2(O)C1=O (stereo not shown) [COL-3, 4-dedimethylaminosancycline] | 57 | 25 | 56 | – | –
CC(C)C[C@H](NC(=O)OCc1ccccc1)C(=O)NC1=CNC2(CCCC2)NC1=O [NPI-3469, 5-(carbobenzoxy-L-leucyl)amino-2,2-tetramethylene-2,3-dihydro-1H-pyrimidin-4-one] | – | 47 | 75 | did not inhibit | No adverse effects
CN(C)[C@@H]1C(O)=C(C(N)=O)C(=O)[C@@]2(O)C(O)=C3C(=O)c4c(O)cccc4[C@@](C)(O)[C@H]3C[C@@H]12 [tetracycline] | 49 | – | – | – | –
